# Reference: patent US20140378460A1, “COMPOSITIONS AND METHODS FOR TREATING NEURODEGENERATIVE DISEASE” (COGNITION THERAPEUTICS, INC., priority 2011, published 2014)
# How the values were obtained:
# [1] = test system: Abeta oligomer binding to primary neurons; experiment: Abeta 1-42 oligomer binding assay; format: cell-based, rat
# Method: In this assay, Abeta oligomers were brought in contact with mature primary neurons in culture and their binding was determined by immunohistochemistry (anti-Abeta antibody) and quantified by image processing. The amount of Abeta in neuronal dendrites is assessed by counting the number of labeled puncta on the neuritis. […] This labeling is associated with synapses, co-localizing with the post-synaptic scaffold protein PSD-95 (Lacor et al., '04). […] The number of synapses can also be quantified in this assay by immunofluorochemistry. Similar procedures for binding assays can be found in the literature. […] Review.
# Primary hippocampal neuronal culture was established as in the membrane trafficking assay above. […] Pretreatment with compounds to be tested lasted for 1 hr and addition of Abeta oligomers or no oligomer (vehicle alone) in a final concentration of 70 ul was followed by incubation for an additional 23 hrs.
# The plates were then washed 3× with PBS for 5 min each. The plates were blocked at RT for 1 hr in 5% goat serum and 0.5% Triton X-100 in PBS. […] Primary antibodies were incubated overnight at 4° C. The plates were then washed 3× with PBS for 5 min each. […] Secondary antibodies were incubated at RT for 1 hr. The plates were washed once with PBS. DAPI (4′,6-diamidino-2-phenylindole, Invitrogen) was then applied at 0.03 ug/ul and incubated at RT for 5 min, then washed with PBS.
# PGP = PGP (Homo sapiens, UniProt P08183); experiment: PGP activity; format: in vitro ADME
# [2] = Genotoxicity (AMES, micronucleus, bacterial cytotox); conditions: 10 μM
# [3] = test system: neurons and glia in culture; experiment: In vitro neuronal and glial toxicity; format: cell-based; conditions: acute or chronic dosing, up to 50 μM, three days
# Text: The sigma-2 receptor antagonists eliminated or reduced Abeta oligomer-induced changes in membrane trafficking.
# [4] = test system: SKOV-3 human ovarian cancer cell line; experiment: MTS tumor cell viability assay; format: cell-based
# [5] = test system: Na+ channel (site 2) (antagonist radioligand); experiment: Receptor panel, inhibition of binding
# sigma-2 receptor = target: T1, sigma-2 receptor (Rattus norvegicus, UniProt Q5U3Y7); experiment: Sigma-2 competitive radioligand binding, [3H]DTG with 300 nM (+)pentazocine, rat cerebral cortex membranes
# T1 sequence (Q5U3Y7 1-176): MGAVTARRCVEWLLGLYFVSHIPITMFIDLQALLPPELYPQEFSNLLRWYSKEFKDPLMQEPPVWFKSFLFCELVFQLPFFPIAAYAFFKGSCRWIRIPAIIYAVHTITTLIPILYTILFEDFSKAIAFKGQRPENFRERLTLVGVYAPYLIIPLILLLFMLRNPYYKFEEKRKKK
# Method: Reactions were terminated by rapid filtration through Whatman GF/C filters using a Brandel 12R cell harvester followed by two washes with ice-cold buffer. Radioactivity on the dried filter discs was measured using a liquid scintillation analyzer (Tri-Carb 2900TR; PerkinElmer Life and Analytical Sciences). The displacement curves were plotted and the Ki values of the test ligands for the receptor subtypes were determined using GraphPad Prism (GraphPad Software Inc., San Diego, Calif.). The percentage specific binding was determined by dividing the difference between total bound (disintegrations per minute) and nonspecific bound (disintegrations per minute) by the total bound (disintegrations per minute).
# [6] = test system: hAPP transgenic mice (Swedish and London mutations); experiment: Morris water maze in hAPP transgenic mice; format: in vivo, mouse; conditions: II 0.5 mg/kg/day; subcutaneous minipump
# Method: In this study, rather than preventing deficits from occurring, deficits that were already established were treated. These studies were performed pursuant to a service contract by scientists who were blind to the experimental conditions. […]
# The swim speed was analyzed as part of the Morris measurements to determine if there were any motor or motivational deficits. Our vehicle is a 5% DMSO/5% Solutol, 90% saline mixture. […] The average of three daily trials on each of four consecutive days were determined.
# Escape latency measurements from the Morris water test were taken.
# During the final four days of treatment, mice were tested to find the hidden platform in three trials/day. A computerized tracking system automatically quantified escape latency, or swim length.
# D3(h) (agonist effect) = D3(h) (agonist effect) (Homo sapiens, UniProt P35462); experiment: Receptor panel, block of downstream signaling; format: cell-based
# Method: (§1) It was also tested for its ability to block downstream signaling induced by agonists or antagonists of a given human receptor.
# [7] = target: alpha 1A (h) (antagonist effect) (Homo sapiens, UniProt P35348); experiment: Receptor panel, block of downstream signaling; format: cell-based; conditions: read-out: % Inhibition of Control
# Method: as §1
# neuronal cultures = experiment: Neuronal nuclear intensity / morphology; conditions: 24 hours
# [8] = test system: caspase-3 in SKOV-3 human ovarian cancer cells; experiment: Caspase-3 activity in tumor cells; format: cell-based
# in vivo = conditions: male, C57BL/6, mouse, sc, 10 mg/kg
# Text: A plasma calibration curve was generated.
# Subcutaneous compound administration was accomplished by […]. Per oral administration was accomplished by gastric gavage. Intravenous administration was accomplished via jugular catheter.
# A brain calibration curve was generated.
# hERG = hERG (Homo sapiens, UniProt Q12809); experiment: hERG inhibition; conditions: 100 nM
# Chain of hERG (Q12809 whole entry): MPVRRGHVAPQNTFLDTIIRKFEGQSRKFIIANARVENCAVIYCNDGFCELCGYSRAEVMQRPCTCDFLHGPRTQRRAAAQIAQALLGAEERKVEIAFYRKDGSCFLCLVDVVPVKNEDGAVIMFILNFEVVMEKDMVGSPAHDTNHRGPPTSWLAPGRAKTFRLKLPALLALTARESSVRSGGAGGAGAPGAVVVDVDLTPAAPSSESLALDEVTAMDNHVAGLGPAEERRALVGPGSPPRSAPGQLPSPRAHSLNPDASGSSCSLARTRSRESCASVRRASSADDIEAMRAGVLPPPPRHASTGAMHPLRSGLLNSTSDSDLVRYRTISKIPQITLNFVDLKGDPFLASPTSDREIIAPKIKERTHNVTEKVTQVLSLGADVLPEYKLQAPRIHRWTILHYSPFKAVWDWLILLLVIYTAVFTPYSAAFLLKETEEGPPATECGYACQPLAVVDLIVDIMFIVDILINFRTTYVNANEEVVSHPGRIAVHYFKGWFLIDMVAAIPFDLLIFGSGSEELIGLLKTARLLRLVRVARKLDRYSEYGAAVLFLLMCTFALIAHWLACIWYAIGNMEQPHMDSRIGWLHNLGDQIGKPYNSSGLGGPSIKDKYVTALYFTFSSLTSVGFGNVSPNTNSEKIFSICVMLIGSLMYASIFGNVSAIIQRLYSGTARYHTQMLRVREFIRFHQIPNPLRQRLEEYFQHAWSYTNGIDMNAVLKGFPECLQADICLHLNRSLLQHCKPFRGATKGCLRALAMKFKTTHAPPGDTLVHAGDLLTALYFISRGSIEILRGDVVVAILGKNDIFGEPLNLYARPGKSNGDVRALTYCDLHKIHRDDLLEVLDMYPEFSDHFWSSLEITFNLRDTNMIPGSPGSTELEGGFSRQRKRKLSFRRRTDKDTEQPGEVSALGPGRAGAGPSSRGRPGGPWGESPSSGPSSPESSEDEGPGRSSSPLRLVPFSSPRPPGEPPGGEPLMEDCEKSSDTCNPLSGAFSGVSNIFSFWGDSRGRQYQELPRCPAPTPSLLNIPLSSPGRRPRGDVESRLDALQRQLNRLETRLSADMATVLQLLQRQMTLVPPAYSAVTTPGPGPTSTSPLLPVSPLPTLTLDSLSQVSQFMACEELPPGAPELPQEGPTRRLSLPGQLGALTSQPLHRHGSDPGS
# Chain of D3(h) (agonist effect) (P35462 whole entry): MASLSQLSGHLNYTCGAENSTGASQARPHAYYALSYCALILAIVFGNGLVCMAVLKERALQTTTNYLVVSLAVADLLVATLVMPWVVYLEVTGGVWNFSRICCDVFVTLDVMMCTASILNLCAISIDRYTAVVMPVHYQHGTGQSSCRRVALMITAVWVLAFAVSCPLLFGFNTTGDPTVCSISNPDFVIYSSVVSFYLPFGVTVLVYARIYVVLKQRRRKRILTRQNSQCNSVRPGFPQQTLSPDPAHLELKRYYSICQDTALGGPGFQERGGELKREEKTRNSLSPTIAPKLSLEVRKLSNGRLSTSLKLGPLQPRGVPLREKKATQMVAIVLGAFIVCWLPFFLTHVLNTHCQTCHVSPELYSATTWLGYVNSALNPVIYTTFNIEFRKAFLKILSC
# Chain of alpha 1A (h) (antagonist effect) (P35348 whole entry): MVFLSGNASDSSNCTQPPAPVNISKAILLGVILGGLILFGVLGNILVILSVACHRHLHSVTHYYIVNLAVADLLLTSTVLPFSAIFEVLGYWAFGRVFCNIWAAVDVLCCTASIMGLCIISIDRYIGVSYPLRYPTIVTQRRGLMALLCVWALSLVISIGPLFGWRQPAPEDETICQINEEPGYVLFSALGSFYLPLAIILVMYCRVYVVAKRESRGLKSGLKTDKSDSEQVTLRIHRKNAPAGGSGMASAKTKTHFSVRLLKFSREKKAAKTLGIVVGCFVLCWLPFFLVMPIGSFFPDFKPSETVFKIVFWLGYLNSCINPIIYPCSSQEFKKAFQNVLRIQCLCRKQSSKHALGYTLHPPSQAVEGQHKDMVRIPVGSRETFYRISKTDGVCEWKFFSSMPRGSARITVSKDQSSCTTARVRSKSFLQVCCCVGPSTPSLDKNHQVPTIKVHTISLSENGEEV
# Chain of PGP (P08183 whole entry): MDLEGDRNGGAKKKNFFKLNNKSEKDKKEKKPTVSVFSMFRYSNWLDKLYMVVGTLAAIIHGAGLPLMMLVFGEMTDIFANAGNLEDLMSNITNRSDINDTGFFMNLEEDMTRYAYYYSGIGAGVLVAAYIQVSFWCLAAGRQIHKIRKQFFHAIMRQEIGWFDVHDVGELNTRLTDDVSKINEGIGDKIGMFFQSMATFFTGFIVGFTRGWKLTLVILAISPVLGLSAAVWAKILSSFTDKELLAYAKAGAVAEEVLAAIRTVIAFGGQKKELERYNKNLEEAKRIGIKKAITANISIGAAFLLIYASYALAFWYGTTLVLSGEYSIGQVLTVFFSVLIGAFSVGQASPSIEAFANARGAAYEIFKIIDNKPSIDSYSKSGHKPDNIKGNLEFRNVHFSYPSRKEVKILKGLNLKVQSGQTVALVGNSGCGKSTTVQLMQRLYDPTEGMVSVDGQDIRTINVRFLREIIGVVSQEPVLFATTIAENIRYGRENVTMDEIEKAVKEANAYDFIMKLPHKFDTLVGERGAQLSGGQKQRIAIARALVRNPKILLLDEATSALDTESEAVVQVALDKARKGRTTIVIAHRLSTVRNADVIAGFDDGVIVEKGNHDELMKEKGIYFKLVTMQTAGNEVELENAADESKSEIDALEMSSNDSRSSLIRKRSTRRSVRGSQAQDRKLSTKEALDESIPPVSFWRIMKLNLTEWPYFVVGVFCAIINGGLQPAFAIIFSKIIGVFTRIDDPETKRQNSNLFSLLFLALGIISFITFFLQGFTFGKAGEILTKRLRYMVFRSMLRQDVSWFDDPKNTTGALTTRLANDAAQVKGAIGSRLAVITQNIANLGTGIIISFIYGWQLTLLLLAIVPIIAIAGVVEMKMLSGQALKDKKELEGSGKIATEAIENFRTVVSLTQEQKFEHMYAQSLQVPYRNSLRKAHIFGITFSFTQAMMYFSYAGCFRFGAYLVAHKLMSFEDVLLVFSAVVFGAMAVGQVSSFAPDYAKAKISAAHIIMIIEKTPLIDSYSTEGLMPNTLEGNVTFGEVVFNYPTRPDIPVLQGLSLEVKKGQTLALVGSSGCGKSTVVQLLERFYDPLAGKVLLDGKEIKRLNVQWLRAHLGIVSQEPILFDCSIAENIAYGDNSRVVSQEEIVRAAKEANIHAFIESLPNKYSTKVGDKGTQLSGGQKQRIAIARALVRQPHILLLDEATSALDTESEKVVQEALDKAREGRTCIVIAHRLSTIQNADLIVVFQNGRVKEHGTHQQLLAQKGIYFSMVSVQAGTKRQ
structure (smiles),measurement,setting,value
COc1cc(CCC(C)NCc2ccc(C(F)(F)F)cc2)ccc1O (stereo not drawn) [Compound II],Decrease of Abeta binding intensity (Abeta puncta),[1]; FIG. 3D,18%
same,Partial block of binding of Abeta oligomer ligand to neurons,[1]; imaging processing algorithm,about 25%
same,IC50,PGP,> 30000 nM
same,Genotoxicity,[2],no genotoxicity
same,Neuronal or glial toxicity,[3],did not induce neuronal or glial toxicity
same,IC50,"[4]; Homo sapiens, SK-OV-3, tumor cell viability, 48 hrs",150000 ± 12000 nM
same,Action,[4]; by EC50 relative to siramesine,Antagonist
same,% Inhibition of Control,[5]; Compound II 10 uM,54%
same,Other Targets: Na + ch2,[5]; Table 11E,Na + ch2 (2 uM)
same,Ki,"sigma-2 receptor; Ki at sigma-2 receptors, displacement of [3H]DTG/300 nM (+)-pentazocine, rat neocortex homogenate",9 nM
same,Ki,"sigma-2 receptor; S2 binding Ki (nM), Table 11B",9 nM
same,Ki,"sigma-2 receptor; Sigma 2 Binding Ki (nM), Table 2, own compounds",9 nM
same,Ki,"sigma-2 receptor; Sigma Affinity (S2) nM, Table 11E, own compounds",9 nM
same,Morris water maze performance versus vehicle-treated transgenic animals,[6],significant improvement in transgenic performance
same,Other Targets: D3,D3(h) (agonist effect); Table 11E,"D3 (4 uM), Mu"
same,inhibition at 10 µM,D3(h) (agonist effect); read-out: % Inhibition of Control,66%
same,inhibition at 10 µM,[7],56%
same,Nuclear morphology / nuclear intensity in neurons,neuronal cultures,did not decrease nuclear intensity
same,Block of SV-119-induced caspase-3 activation in tumor cells,[8],do not block caspase-3 activation
same,Caspase-3 activity induced in tumor cells,[8],did not induce caspase-3 activity
same,AUC,in vivo,385 ng·h/mL
same,Cmax,in vivo,279 ng/mL
same,Tmax,in vivo,30 min
same,hERG inhibition,hERG,24%
